We go through four molecules from ChEMBL document CHEMBL1137419, “Identification of potent 5-pyrimidinyl-2-aminothiazole CDK4, 6 inhibitors with significant selectivity over CDK1, 2, 5, 7, and 9” (Bioorg Med Chem Lett, 2006).

The structures appear in SMILES notation. Bounds are passed on as bounds.

The target of test [1] is T1, Cyclin-dependent kinase 4 (Homo sapiens, UniProt P11802). As to the kind of experiment: Inhibition of CDK4.
In test [2] the target is Cyclin-dependent kinase 1 (Homo sapiens, UniProt P06493). In words: Inhibition of CDK1.
Test [3] addresses Cyclin-dependent kinase 2 (Homo sapiens, UniProt P24941). In words: Inhibition of CDK2.
Test [4] concerns the target Cyclin-dependent kinase 5 (Homo sapiens, UniProt Q00535). In words: Inhibition of CDK5.
In test [5] the target is Cyclin-dependent kinase 7 (Homo sapiens, UniProt P50613). In words: Inhibition of CDK7.
Test [6] has as its target Cyclin-dependent kinase 9 (Homo sapiens, UniProt P50750). As to the kind of experiment: Inhibition of CDK9.
Test [7] relates to EOL1. In words: Cell cycle arrest in Eol1 cells by accumulation at G1 phase. Type of test: functional, Homo sapiens.
The target in test [8] is T1, Cyclin-dependent kinase 4. As to the kind of experiment: Inhibition of pRb phosphorylation at Ser780 residue by CDK4. Type of test: functional. The settings on record: concentration not given here.
The target in test [9] is Cyclin-dependent kinase 6 (Homo sapiens) (UniProt Q00534). In words: Inhibition of pRb phosphorylation at Ser780 residue by CDK6. Type of test: functional. The settings on record: concentration not given here.
In test [10] the test system is EOL1. As to the kind of experiment: Inhibition of pRb phosphorylation in Eol1 xenografted in nude rat at 510 nM, iv after 24 hrs. Type of test: functional, Homo sapiens.
Test [11] deals with EOL1. In words: Inhibition of BrdU incorporation in Eol1 xenografted in nude rat at 510 nM, iv after 24 hrs. Type of test: functional, Homo sapiens.

Sequence of Cyclin-dependent kinase 7 (P50613 whole entry): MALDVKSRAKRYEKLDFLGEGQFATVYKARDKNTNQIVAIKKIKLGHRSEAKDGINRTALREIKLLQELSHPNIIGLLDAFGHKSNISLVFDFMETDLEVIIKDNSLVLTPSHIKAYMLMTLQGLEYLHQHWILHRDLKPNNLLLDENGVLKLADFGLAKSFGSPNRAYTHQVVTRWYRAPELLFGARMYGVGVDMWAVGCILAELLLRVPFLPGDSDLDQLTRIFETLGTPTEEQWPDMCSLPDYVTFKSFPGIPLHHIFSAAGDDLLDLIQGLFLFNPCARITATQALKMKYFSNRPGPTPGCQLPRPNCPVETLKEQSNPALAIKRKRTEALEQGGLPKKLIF
Sequence of Cyclin-dependent kinase 1 (P06493 whole entry): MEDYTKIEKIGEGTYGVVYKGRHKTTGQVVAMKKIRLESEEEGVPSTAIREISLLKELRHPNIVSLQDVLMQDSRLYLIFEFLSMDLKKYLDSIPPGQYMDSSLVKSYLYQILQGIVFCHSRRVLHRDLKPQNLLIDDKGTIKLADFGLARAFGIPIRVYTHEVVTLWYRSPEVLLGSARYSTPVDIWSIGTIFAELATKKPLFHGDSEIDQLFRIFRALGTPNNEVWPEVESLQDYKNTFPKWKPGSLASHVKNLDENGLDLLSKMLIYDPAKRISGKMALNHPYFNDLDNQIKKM
Sequence of Cyclin-dependent kinase 5 (Q00535 whole entry): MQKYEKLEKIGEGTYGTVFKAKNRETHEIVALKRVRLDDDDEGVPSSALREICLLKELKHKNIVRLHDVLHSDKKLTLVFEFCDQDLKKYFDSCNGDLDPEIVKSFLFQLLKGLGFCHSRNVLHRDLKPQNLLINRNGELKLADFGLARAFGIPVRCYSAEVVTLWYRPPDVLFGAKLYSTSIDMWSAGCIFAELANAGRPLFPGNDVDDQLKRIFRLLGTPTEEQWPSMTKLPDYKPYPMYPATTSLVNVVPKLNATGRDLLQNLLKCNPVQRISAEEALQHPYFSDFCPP
Sequence of Cyclin-dependent kinase 9 (P50750 whole entry): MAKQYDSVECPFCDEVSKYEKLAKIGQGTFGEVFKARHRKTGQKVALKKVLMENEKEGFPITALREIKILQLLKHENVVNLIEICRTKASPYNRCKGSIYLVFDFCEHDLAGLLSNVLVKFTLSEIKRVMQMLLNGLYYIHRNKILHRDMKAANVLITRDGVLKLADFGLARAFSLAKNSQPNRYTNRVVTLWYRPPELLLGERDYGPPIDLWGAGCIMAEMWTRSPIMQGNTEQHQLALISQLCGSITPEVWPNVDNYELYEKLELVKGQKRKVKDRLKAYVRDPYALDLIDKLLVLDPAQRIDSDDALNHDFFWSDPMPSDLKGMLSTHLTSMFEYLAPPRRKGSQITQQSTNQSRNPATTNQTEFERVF
T1 sequence (P11802 whole entry): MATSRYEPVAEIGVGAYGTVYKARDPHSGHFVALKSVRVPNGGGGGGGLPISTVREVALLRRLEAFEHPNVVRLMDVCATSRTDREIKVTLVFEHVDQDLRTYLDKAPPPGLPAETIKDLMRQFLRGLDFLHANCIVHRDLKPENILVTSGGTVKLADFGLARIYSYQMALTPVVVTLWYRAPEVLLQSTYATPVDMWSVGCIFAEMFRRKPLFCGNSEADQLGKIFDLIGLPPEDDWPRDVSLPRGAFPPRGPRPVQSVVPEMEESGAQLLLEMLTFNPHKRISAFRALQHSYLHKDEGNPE
Sequence of Cyclin-dependent kinase 6 (Homo sapiens) (Q00534 whole entry): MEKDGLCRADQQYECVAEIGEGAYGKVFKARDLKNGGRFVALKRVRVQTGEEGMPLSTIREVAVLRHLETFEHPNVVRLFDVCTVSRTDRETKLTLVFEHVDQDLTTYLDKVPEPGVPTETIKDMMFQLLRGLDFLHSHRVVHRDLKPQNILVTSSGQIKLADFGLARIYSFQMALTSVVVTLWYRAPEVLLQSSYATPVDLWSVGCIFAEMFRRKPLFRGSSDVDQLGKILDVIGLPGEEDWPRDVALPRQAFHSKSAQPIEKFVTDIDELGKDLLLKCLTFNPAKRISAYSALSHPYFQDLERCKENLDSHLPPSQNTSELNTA

Regarding `c1ccc(Nc2ncc(-c3ccnc(OC4CCCCC4)n3)s2)nc1`, the IC50 worked out at 4.2 nM in [1]; 24 nM in test [2]; 14 nM in [3]; 34 nM in [4]; 20 nM in test [5]; 2.5 nM in test [6].
For `Cc1cnc(OC2CCCCC2)nc1-c1cnc(Nc2ccccn2)s1`, the 50% inhibitory concentration (IC50) was 13 nM in test [1]; more than 1000 nM in test [2]; 270 nM in test [3]; more than 10000 nM in test [4]; 190 nM in test [5]; 26 nM in test [6].
Regarding `Cc1cc(-c2cnc(Nc3cnc(CN4CCN(C)CC4)cn3)s2)nc(OC2CCCCC2)n1`, it took 3000 nM to reach half-maximal inhibition in test [4] (IC50). For the same molecule, the Activity in the test on EOL1 [7] is 90%. The inhibition in test [8] and in test [9] was more than 80% throughout. Further, the Inhibition is listed as 99% in the test on EOL1 [10] and 91% in the test with EOL1 [11].
In the case of `Cc1cc(-c2cnc(Nc3ccccn3)s2)nc(OC2CCCCC2)n1`, the IC50 is 34 nM in test [1]; more than 10000 nM in [2]; more than 10000 nM in test [3]; more than 10000 nM in test [4]; more than 10000 nM in test [5]; more than 10000 nM in [6].
